Results as given in patent US11229398B2, “Electrode assemblies for neurostimulation treatment” (Cardionomic, Inc., priority 2016, dated 2022).

Tested on: normal, non-HF ovine model
Experiment: Change in contractility (max(dP/dt) from pressure measurements as surrogate) and beat-by-beat correlation of right and left ventricle contractility after an injection
Format: in vivo
Details: for Contractility % Increase: after the injection, max(dP/dt) used as surrogate for contractility
Excerpt: The correlation was a heartbeat-by-heartbeat analysis. Pressure measurements, taken by a Millar catheter comprising a MEMS pressure sensor, in units of max(dP/dt) was used as a surrogate for contractility.
The first change, a dobutamine injection, provided a very high contractility increase greater than 500%. The average correlation between right ventricle contractility and left ventricle contractility was very good at 0.91, where 1.00 is a perfect correlation. Accordingly, if a subject is given a dobutamine injection, measuring changes to right ventricle contractility can provide accurate information about changes to left ventricle contractility. The first change was repeated three times.
The second change, calcium injection at 5 mL, provided a contractility increase of about 20%. […] The average correlation between right ventricle contractility and left ventricle contractility using a Millar (MEMS) sensor on a catheter was very good at 0.91. The average correlation between right ventricle contractility and left ventricle contractility using a fluid-filled lumen of a Swan-Ganz catheter in communication with an external pressure sensor was also very good at 0.87. Accordingly, under certain circumstances such as measurement of an animal (normal, non-HF ovine model) model, if a subject is given a calcium injection, measuring changes to right ventricle contractility with a MEMS sensor or a fluid filled lumen can provide accurate information about changes to left ventricle contractility.
The fourth change, neurostimulation as described herein, provided a contractility increase of about 28%. The correlation between right ventricle contractility and left ventricle contractility was very good at 0.90. Accordingly, if a subject is given neurostimulation, measuring changes to right ventricle contractility can provide accurate information about changes to left ventricle contractility. […] Thereafter, the left ventricle contractility tapered off logarithmically or exponentially, but the right ventricle contractility decreased very slowly. These differences help to show why the correlation between left ventricle contractility and right ventricle contractility are poorly correlated for calcium injections. The fourth change was not repeated.

[1] = first several beats after the injection

calcium [Calcium Injection (5 mL)] was tested, and the “Contractility % Increase” value was ~20%, the “Contractility % Increase” value (listed as calcium injection) was “about 20%” and the left ventricle contractility [1] was “increased dramatically”. For the same substance, the right ventricle contractility [1] was “only slightly increased”.
